# Measurements reported in US20100004248A1, “Use of a Nitric Oxide Synthase Modulator for the Treatment of Cardiac Indications” (priority 2005, published 2010).
# Legend:
# [1] = test system: C57/BL6 WT mice subjected to TAC pressure overload; assay: Body weight and heart weight in mice subjected to transverse aortic constriction (TAC); format: in vivo, mouse; conditions: TAC 3 weeks, oral co-treatment 1 mg/g food, mean ± sem
# From the text: Male NOS3 null mice (NOS3^−/−) and C57/BL6 WT controls (8-11 weeks, Jackson Labs, Bar Harbor, Me., USA) were used. Pressure overload was produced by transverse aorta constriction (TAC). Briefly, The aortic arch was isolated by entering the extrapleural space between the second and third rib, and afterwards the transverse aorta was isolated between the right and left carotid arteries. A 7-0 prolene suture ligature was tied around the transverse aorta against a 27-gauge needle to produce a 65-70% constriction after the removal of the needle. After closing the chest, animals were extubated, and a subcutaneous injection of morphine sulphate 0.2 mg, was administered before they returned to their cages. Animal's ventilatory and circulatory status was checked every 30 minutes during the first 2 hours. Sham-operated mice underwent the same operation except for aortic constriction. […] Animals were randomized to receive placebo or BH4 (120 mg/kg/d) for the next 5 weeks. At the end of the study, i.e. at 9 weeks, animal were sacrificed to receive tissue or underwent in vivo PV-loop analysis. […] Control mice were subject to sham operations, and animals were studied 3-9 weeks following surgery. […]
# [2] = test system: C57/BL6 WT mice subjected to TAC pressure overload; assay: In vivo hemodynamics, PV loop analysis, in TAC mice; design: species or system mouse; conditions: TAC 3 weeks
# From the text: Male NOS3 null mice (NOS3^−/−) and C57/BL6 WT controls (8-11 weeks, Jackson Labs, Bar Harbor, Me., USA) were used. Pressure overload was produced by transverse aorta constriction (TAC). Briefly, The aortic arch was isolated by entering the extrapleural space between the second and third rib, and afterwards the transverse aorta was isolated between the right and left carotid arteries. A 7-0 prolene suture ligature was tied around the transverse aorta against a 27-gauge needle to produce a 65-70% constriction after the removal of the needle. After closing the chest, animals were extubated, and a subcutaneous injection of morphine sulphate 0.2 mg, was administered before they returned to their cages. Animal's ventilatory and circulatory status was checked every 30 minutes during the first 2 hours. Sham-operated mice underwent the same operation except for aortic constriction. […] Animals were randomized to receive placebo or BH4 (120 mg/kg/d) for the next 5 weeks. At the end of the study, i.e. at 9 weeks, animal were sacrificed to receive tissue or underwent in vivo PV-loop analysis. […] Control mice were subject to sham operations, and animals were studied 3-9 weeks following surgery. An additional group of wild-type animals were subjected to TAC for 3 weeks while co-treated with oral tetrahydrobiopterin (BH4) (Sigma-Aldrich) (1 mg/g food) mixed in their rodent chow, providing 5 mg/day based on 4-6 g daily diet^8.
# Two different BH4 treatment protocols are used. For experiments related to FIGS. 1-7, where prevention of cardiac indications is described BH4 is provided orally as a treatment starting 2 days after TAC surgery (once mice are again eating oral diet). For those figures related to treatment of established cardiac indications, FIGS. 8-23, BH4 is provided orally but this is delayed for 4 weeks to establish substantial cardiac hypertrophy, remodeling, and NOS-uncoupling. Then the treatment is provided for the remaining 5 week period.
# In vivo left ventricular (LV) function was assessed by pressure-volume catheter^12,13. Mice were anesthetized with 1-2% isoflurane, urethane ([…], i.p.), etomidate (5-10 mg/kg, i.p.), and morphine (1-2 mg/kg, i.p.), underwent tracheostomy, and were ventilated with 6-7 μL/g tidal volume and 130 breaths/min. Volume expansion (12.5% human albumin, 50-100 μL over 5 min) was provided through a 30 G cannula via the right external jugular vein. The left ventricular apex was exposed through an incision between the 7-8th rib, and a catheter, specifically a 1.4 Fr PV catheter (SPR 839, Millar Instruments, Inc.), was advanced through the apex to lie along the longitudinal axis. Absolute volume was calibrated, and pressure-volume data was measured at steady state and during transient reduction of venous return as reported^13
# reactive oxygen species = assay: Reactive oxygen species generation in TAC myocardium (luminol, lucigenin, DHE, DCF); format: in vivo, mouse; conditions: WT mice, TAC 3 weeks, oral co-treatment
# Description: Reactive oxygen species generation was examined by several independent methods. Superoxide production in left ventricular tissue homogenates was determined by luminol-enhanced chemiluminescence (EMD Biosciences). Flash frozen myocardium was homogenized in iced PBS buffer, centrifuged, and the precipitate re-suspended in assay buffer to a final concentration of 100 μM luminol following manufacturer's instructions. Phorbol-12-myristate-13-acetate or other oxidase stimulators were not used in the assay. Data were normalized by sample weight. In addition, fresh frozen left ventricular myocardium (8 μm slices) was incubated for 1 hour at 37° C. with florescent dyes 2′,7′-dichlorodihydro-fluorescein diacetate (DCF; Molecular Probes; 4 μM) (Invitrogen Corp.) reflecting hydrogen peroxide formation (DCF staining localizes principally to mitochondria within myocytes), dihydroethidium (DHE; Molecular Probes; 2 μM) which assesses O2^− formation (typically nuclear localization), and nitrotyrosine formation (polyclonal nitrotyrosine Ab, 1:100; Upstate), which can reflect formation of ONOO^−. Imaging was performed on a Zeiss inverted epifluorescence microscope attached to an argon-krypton laser confocal scanning microscope (UltraVIEW, Perkin Elmer Life Sciences, Inc.). […] Nitrotyrosine was also quantitatively assessed by ELISA assay (Oxis International).
# [3] = oral co-treatment 1 mg/g food, mean ± sem
smiles,measurement,setting,value
"Nc1nc2c(c(=O)[nH]1)NC(C(O)C(O)CO)CN2 (centres unmarked) [H4N, tetrahydroneopterin]",Heart Weight (HW),[1],231.3 ± 10.7 mg
same,functional or remodeling response to TAC,[2]; oral co-treatment,no effect
same,Arterial Elastance,[2]; [3],11.4 ± 0.7 mmHg/μL
same,Ejection Fraction,[2]; [3],43.4 ± 9.8%
same,End-diastolic Volume,[2]; [3],38.8 ± 8.0 µL
same,End-systolic Elastance,[2]; [3],41.0 ± 9.3 mmHg/μL · g
same,End-systolic Volume,[2]; [3],24.0 ± 7.6 µL
same,Heart RateR,[2]; [3],501.2 ± 28.5 min⁻¹
same,LV Systolic Pressure,[2]; [3],177.8 ± 4.6 mmHg
same,Peak Power Index,[2]; [3],31.8 ± 5.8 mmHg/s
same,Tau,[2]; [3],5.5 ± 0.36 ms
same,dPdtmn,[2]; [3],−10725 ± 971.0 mmHg/s
same,dPdtmx,[2]; [3],11154 ± 520 mmHg/s
same,"reactive oxygen species generation (luminol chemiluminescence, DHE, DCF)",reactive oxygen species,None of these changes were observed
